System: F culmorum
Test: Specific antifungal activity of Rs-AFP2 isoforms in SMF− and SMF+ media
Format: cell-based
Set-up: IC50 SMF− / IC50 SMF+: unit not given here
Settings: for RELATIVE SPECIFIC ACTIVITY (%) IN MEDIUM SMF+ / RELATIVE SPECIFIC ACTIVITY (%) IN MEDIUM SMF−: 1/IC50 of mutant divided by that of yRs-AFP2 x 100, 48 hour incubation, preliminary tests; for RELATIVE SPECIFIC ACTIVITY (%) IN MEDIUM SMF+: SMF with 1 mM CaCl2 and 50 mM KCl; for RELATIVE SPECIFIC ACTIVITY (%) IN MEDIUM SMF−: low ionic strength medium; for IC50 SMF+ / IC50 SMF−: 72 hours growth, triplicate; for IC50 SMF+: high salt medium (1 mM CaCl2, 50 mM KCl); for IC50 SMF− / effect of substitution on antifungal activity in SMF−, in words: low salt medium; for effect of substitution on antifungal activity in SMF+, in words / effect of substitution on antifungal activity in SMF−, in words: Table 2 tests; for effect of substitution on antifungal activity in SMF+, in words: high salt medium; for relative specific antifungal activity (1/IC50), FIG. 6, in words: medium SMF+, Rs-AFP2 set at 100
Method: For each isoform, two independent purifications were carried out and the antifungal activity was determined in duplicate using F culmorum as a test fungus in two different media: a low ionic strength medium called SMF-(Terras et al, 1992, J Biol Chem, 267:15301-15309) and the same medium supplemented with 1 mM CaCl2 and 50 mM KCl called SMF+. The presence of salts in the test medium, especially salts with divalent cations, reduces the specific activity of Rs-AFP2. Seed-purified as well as yeast-expressed wild type Rs-AFP2 served as a control in the assays.
The relative specific activity is expressed as the specific activity of the mutant divided by the specific activity of yRs-AFP2 and multiplied by 100. […] The specific activity was measured in medium SMF−and SMF+.
Deviations are given as standard error of the mean (sem) based on the triplicate experiments. In SMF−, the medium without added salts, most of the derivatives show no decrease or only a minor decrease in antifungal activity, while in SMF+, the medium with added salts, there is a significant decrease in antifungal activity for several Rs-AFP2 isoforms.

| Substance | RELATIVE SPECIFIC ACTIVITY (%) IN MEDIUM SMF+ | RELATIVE SPECIFIC ACTIVITY (%) IN MEDIUM SMF− | IC50 SMF+ | IC50 SMF− | antifungal activity compared with yRs-AFP2, in words (Table 1 tests, SMF− and SMF+) | effect of substitution on antifungal activity in SMF+, in words | effect of substitution on antifungal activity in SMF−, in words | relative specific antifungal activity (1/IC50), FIG. 6, in words | antifungal activity compared with yRs-AFP2 in high salt (SMF+), in words (Table 1 tests) | antifungal activity compared with yRs-AFP2 in low salt (SMF−), in words (Table 1 tests) |
| --- | --- | --- | --- | --- | --- | --- | --- | --- | --- | --- |
| yRs-AFP2/T10G (QKLCQRPSGGWSGVCGNNNACKNQCIRLEKARHGSCNYVFPAHKCICYFPC; listed as Raphanus sativus) | <16% | 30% | >100 | 11.0 | – | – | – | – | – | – |
| yRs-AFP2/Y38G (QKLCQRPSGTWSGVCGNNNACKNQCIRLEKARHGSCNGVFPAHKCICYFPC; listed as Raphanus sativus) | <4% | 30% | >200 | 42.0 | – | – | – | – | – | – |
| yRs-AFP2/P7-: yeast-expressed Rs-AFP2 isoform with proline deletion at position 7 (QKLCQRSGTWSGVCGNNNACKNQCIRLEKARHGSCNYVFPAHKCICYFPC; listed as Raphanus sativus) | 17% | 8% | – | – | – | – | – | – | – | – |
| yRs-AFP2/H33A (QKLCQRPSGTWSGVCGNNNACKNQCIRLEKARAGSCNYVFPAHKCICYFPC; listed as Raphanus sativus) | – | – | >100 | 32.0 | – | – | – | – | – | – |
| yRs-AFP2/N37R (QKLCQRPSGTWSGVCGNNNACKNQCIRLEKARHGSCRYVFPAHKCICYFPC; listed as Raphanus sativus) | 80% | 100% | 7.0 | 2.8 | – | – | – | – | – | – |
| yRs-AFP2/S12R (QKLCQRPSGTWRGVCGNNNACKNQCIRLEKARHGSCNYVFPAHKCICYFPC; listed as Raphanus sativus) | 31% | 67% | 20.0 | 3.5 | – | – | – | – | – | – |
| yRs-AFP2/W11S (QKLCQRPSGTSSGVCGNNNACKNQCIRLEKARHGSCNYVFPAHKCICYFPC; listed as Raphanus sativus) | – | – | >100 | 16.0 | – | – | – | – | – | – |
| yRs-AFP2/A42R (QKLCQRPSGTWSGVCGNNNACKNQCIRLEKARHGSCNYVFPRHKCICYFPC; listed as Raphanus sativus) | 26% | 44% | 18.0 | 4.2 | – | – | – | – | – | – |
| yRs-AFP2/F49R (QKLCQRPSGTWSGVCGNNNACKNQCIRLEKARHGSCNYVFPAHKCICYRPC; listed as Raphanus sativus) | 22% | 18% | 23.0 | 22.0 | – | – | – | – | – | – |
| yRs-AFP2/Q5M: yeast-expressed Rs-AFP2 isoform, position 5 glutamine to methionine (QKLCMRPSGTWSGVCGNNNACKNQCIRLEKARHGSCNYVFPAHKCICYFPC; listed as Raphanus sativus) | 100% | 100% | 5.4 | 4.1 | maintain their antifungal activity | increased antifungal activity | little effect on the antifungal activity | enhanced activity | – | – |
| yRs-AFP2/G16M (QKLCQRPSGTWSGVCMNNNACKNQCIRLEKARHGSCNYVFPAHKCICYFPC; listed as Raphanus sativus) | 114% | 151% | 5.0 | 2.2 | – | increased antifungal activity | little effect on the antifungal activity | enhanced activity | not so significantly different in high salt | increased activity in low salt |
| yRs-AFP2/I26R (QKLCQRPSGTWSGVCGNNNACKNQCRRLEKARHGSCNYVFPAHKCICYFPC; listed as Raphanus sativus) | 82% | 76% | 9.6 | 7.2 | – | – | – | – | – | – |
| yRs-AFP2/F40M (QKLCQRPSGTWSGVCGNNNACKNQCIRLEKARHGSCNYVMPAHKCICYFPC; listed as Raphanus sativus) | 23% | 30% | 54.0 | 16.0 | – | – | – | – | – | – |
| yRs-AFP2/P7R: yeast-expressed Rs-AFP2 isoform, P7 replaced by arginine (QKLCQRRSGTWSGVCGNNNACKNQCIRLEKARHGSCNYVFPAHKCICYFPC; listed as Raphanus sativus) | 84% | 33% | 8.8 | 6.8 | – | – | – | – | – | – |
| yRs-AFP2/K44Q (QKLCQRPSGTWSGVCGNNNACKNQCIRLEKARHGSCNYVFPAHQCICYFPC; listed as Raphanus sativus) | 114% | 100% | – | – | – | – | – | – | – | – |
| yRs-AFP2/I46R (QKLCQRPSGTWSGVCGNNNACKNQCIRLEKARHGSCNYVFPAHKCRCYFPC; listed as Raphanus sativus) | – | 22% | >40 | 12.0 | – | – | – | – | – | – |
| yRs-AFP2/A31W (QKLCQRPSGTWSGVCGNNNACKNQCIRLEKWRHGSCNYVFPAHKCICYFPC; listed as Raphanus sativus) | <5% | 15% | >100 | 30.0 | – | – | – | – | – | – |
| yRs-AFP2/L28R (QKLCQRPSGTWSGVCGNNNACKNQCIRREKARHGSCNYVFPAHKCICYFPC; listed as Raphanus sativus) | – | 39% | >100 | 6.4 | – | – | – | – | – | – |

Reference: patent publication US6864068B2, “Antifungal proteins” (Syngenta Limited, priority 1995, dated 2005)
